Where two headings read alike, the source gives them in different places.
Columns and labels:
Plasmopara viticola = assay: Plasmopara test (grapevines)/protective; assay type: in vivo; details: protective, 100 ppm of active ingredient, evaluated 6 days after inoculation
Description: To test for protective activity, young plants are sprayed with the preparation of active compound at the stated rate of application. After the spray coating has dried on, the plants are inoculated with an aqueous spore suspension of Plasmopara viticola and then remain for 1 day in an incubation cabinet at approximately 20° C. and a relative atmospheric humidity of 100%. The plant is subsequently placed for 4 days in a greenhouse at approximately 21° C. and a relative atmospheric humidity of approximately 90%. The plants are then misted and placed for 1 day in an incubation cabinet.

Phytophthora infestans = assay type: in vivo; details: tomato plants, preventive, 500 ppm of active ingredient, evaluated 7 days after inoculation
[1] = Measurement of logP values by HPLC on reversed phase columns (EEC directive 79/831 Annex V.A8); assay type: physicochemical

## CCCCCOC(=O)Nc1cccnc1CON=C(c1ccccc1)c1nnnn1C [Example 2, pentyl {2-[({[(1-methyl-1H-tetrazol-5-yl)(phenyl)methylene]amino}oxy)methyl]pyridin-3-yl}carbamate]
Plasmopara viticola
  efficacy: ≥ 70%
Phytophthora infestans
  efficacy: ≥ 70%
[1]; HPLC, pH 2.7, 0.1% formic acid, reported in preparation examples, read-out: logP(HCOOH)
  chromatographic logP: 3.53

## Cn1nnnc1C(=NOCc1ncccc1N1C(=O)c2ccccc2C1=O)c1ccccc1 [Example 13, 2-{2-[({[(1-methyl-1H-tetrazol-5-yl)(phenyl)methylene]amino}oxy)methyl]pyridin-3-yl}-1H-isoindole-1,3(2H)-dione]
[1]; pH 2.7
  chromatographic logP: 2.63

## Cn1nnnc1C(=NOCc1ncccc1N)c1ccccc1 [Example 14, 2-[({[(1-methyl-1H-tetrazol-5-yl)(phenyl)methylene]amino}oxy)methyl]pyridin-3-amine]
[1]; pH 2.7
  chromatographic logP: 1.01

Reference: patent US20110021572A1, “FUNGICIDE HYDROXIMOYL-TETRAZOLE DERIVATIVES” (priority 2008, published 2011)
